A value given as a limit tells only on which side of the number the result lay.

A short description of data set [1]: Antiproliferative activity in mouse BAF3 cells after 72 hrs by CCK8 assay. It counts as cell-based.
In data set [2] the target is Bcr/Abl fusion protein (Homo sapiens) (UniProt P00519+P11274). As to conditions: BaF3.
Description: Inhibition of wild type BCR/ABL (unknown origin) transfected in mouse BAF3 cells assessed as growth inhibition after 72 hrs by CCK8 assay
Data set [3] concerns Bcr/Abl fusion protein (Homo sapiens), P00519+P11274 [T315I]. As to conditions: BaF3.
Data set [4] can be described thus: Selectivity ratio of GI50 for mouse BAF3 cells to GI50 for BCR/ABL T315I mutant (unknown origin) transfected in mouse BAF3 cells.
The nature of data set [5]: Selectivity ratio of GI50 for mouse BAF3 cells to GI50 for wild type BCR/ABL (unknown origin) transfected in mouse BAF3 cells.
For a further data set, the system named is K562. The experiment in a line: Antiproliferative activity in human K562 cells after 72 hrs by CCK8 assay. It is filed as functional. The following applies: K562, 72 h.
A further data set concerns KU812 cell line. Briefly: Antiproliferative activity in human KU812 cells after 72 hrs by CCK8 assay. It counts as functional. As to conditions: KU812, 72 h.
In the next data set the test system is MEG-01. Briefly: Antiproliferative activity in human MEG01 cells after 72 hrs by CCK8 assay. It counts as functional. The following applies: MEG-01, 72 h.
A further data set has as its system MEC1. The experiment in a line: Antiproliferative activity in human MEC1 cells after 72 hrs by CCK8 assay. It is filed as functional. As to conditions: MEC1, 72 h.
In another data set the test system is HL-60. The experiment in a line: Antiproliferative activity in human HL60 cells after 72 hrs by CCK8 assay. It counts as functional. As to conditions: HL-60, 72 h.
The subject of a further data set is OCI-AML2. The experiment in a line: Antiproliferative activity in human OCI-AML2 cells after 72 hrs by CCK8 assay. It counts as functional. As to conditions: OCI-AML2, 72 h.
For another data set, the system named is U-937. The experiment in a line: Antiproliferative activity in human U937 cells after 72 hrs by CCK8 assay. It counts as functional. The following applies: U-937, 72 h.
The nature of data set [6]: Antiproliferative activity in CHO cells after 72 hrs by CCK8 assay. The following applies: chinese hamster. It counts as cell-based, Cricetulus griseus.
Another data set concerns BaF3. Briefly: Antitumor activity against mouse BAF3 cells expressing BCR/ABL T315I mutant allografted in nu/nu mouse assessed as tumor weight at 100 mg/kg, po administered via gavage measured for 14 days (reference value: 2.78 g). It is filed as functional.

Sequence of Bcr/Abl fusion protein (Homo sapiens) (P00519 whole entry, looked up, the tested form may be a part): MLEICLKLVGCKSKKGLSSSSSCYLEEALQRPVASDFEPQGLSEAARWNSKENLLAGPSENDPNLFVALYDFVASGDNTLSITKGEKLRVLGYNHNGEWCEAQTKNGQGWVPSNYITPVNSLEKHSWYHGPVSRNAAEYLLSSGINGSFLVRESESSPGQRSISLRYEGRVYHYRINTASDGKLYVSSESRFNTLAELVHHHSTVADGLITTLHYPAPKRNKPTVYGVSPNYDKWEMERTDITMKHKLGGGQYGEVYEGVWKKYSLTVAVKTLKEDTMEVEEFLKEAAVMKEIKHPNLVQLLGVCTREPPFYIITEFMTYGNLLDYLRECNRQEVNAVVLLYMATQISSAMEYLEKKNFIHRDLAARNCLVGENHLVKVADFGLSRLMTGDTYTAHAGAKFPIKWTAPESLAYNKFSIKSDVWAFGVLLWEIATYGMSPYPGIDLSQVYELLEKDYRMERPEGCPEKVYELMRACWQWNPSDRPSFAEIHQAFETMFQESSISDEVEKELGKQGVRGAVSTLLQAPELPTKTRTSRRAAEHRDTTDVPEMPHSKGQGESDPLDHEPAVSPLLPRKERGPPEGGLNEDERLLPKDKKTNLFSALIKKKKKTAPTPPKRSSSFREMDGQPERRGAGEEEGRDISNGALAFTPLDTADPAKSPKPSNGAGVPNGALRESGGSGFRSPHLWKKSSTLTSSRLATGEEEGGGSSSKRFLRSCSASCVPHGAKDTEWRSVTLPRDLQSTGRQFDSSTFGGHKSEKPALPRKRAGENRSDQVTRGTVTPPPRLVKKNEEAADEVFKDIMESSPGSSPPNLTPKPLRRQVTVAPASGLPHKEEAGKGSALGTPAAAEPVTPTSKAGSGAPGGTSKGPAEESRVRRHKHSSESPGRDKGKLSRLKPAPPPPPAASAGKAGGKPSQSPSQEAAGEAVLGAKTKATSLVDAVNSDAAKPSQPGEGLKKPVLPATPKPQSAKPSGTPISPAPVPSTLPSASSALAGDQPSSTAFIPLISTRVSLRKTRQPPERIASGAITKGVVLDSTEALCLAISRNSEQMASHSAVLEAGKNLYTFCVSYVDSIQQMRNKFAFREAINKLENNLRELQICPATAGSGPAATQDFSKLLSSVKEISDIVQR
Sequence of Bcr/Abl fusion protein (Homo sapiens) (P11274 whole entry, looked up, the tested form may be a part): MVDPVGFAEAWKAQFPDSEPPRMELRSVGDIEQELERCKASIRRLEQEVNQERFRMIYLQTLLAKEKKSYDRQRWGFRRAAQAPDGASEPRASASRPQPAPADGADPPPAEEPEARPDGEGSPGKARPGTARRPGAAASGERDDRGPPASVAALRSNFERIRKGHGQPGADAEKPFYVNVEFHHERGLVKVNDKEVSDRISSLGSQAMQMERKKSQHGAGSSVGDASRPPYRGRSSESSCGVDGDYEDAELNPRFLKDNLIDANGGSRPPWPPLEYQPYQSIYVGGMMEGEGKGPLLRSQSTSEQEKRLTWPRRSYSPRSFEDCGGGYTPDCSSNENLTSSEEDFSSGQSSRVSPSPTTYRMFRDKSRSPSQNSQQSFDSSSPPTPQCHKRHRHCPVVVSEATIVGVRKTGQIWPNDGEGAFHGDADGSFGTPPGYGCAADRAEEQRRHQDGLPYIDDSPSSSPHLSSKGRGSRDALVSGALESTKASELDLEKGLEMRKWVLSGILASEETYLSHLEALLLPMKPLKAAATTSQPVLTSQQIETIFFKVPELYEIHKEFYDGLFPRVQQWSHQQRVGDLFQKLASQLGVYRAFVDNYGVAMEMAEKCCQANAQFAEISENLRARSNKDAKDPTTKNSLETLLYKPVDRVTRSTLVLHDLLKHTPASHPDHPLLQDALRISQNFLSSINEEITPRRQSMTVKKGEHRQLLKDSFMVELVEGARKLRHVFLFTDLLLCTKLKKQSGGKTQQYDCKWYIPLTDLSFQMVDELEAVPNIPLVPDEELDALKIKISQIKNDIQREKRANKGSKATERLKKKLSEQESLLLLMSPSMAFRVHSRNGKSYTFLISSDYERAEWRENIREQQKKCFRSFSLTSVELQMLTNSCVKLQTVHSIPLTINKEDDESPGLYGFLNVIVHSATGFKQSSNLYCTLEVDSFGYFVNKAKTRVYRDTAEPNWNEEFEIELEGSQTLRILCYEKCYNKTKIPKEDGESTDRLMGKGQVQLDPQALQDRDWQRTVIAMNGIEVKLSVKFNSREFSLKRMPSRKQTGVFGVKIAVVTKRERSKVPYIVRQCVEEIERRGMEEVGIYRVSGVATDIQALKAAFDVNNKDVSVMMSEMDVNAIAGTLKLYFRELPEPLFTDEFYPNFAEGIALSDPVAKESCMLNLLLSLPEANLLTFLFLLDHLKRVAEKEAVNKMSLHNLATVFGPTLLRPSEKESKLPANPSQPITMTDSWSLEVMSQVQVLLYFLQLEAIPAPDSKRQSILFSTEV

In the case of `O=C(CCSc1ccc2c(/C=C/c3ccccn3)n[nH]c2c1)Nc1ccc(CN2CCCC2)c(C(F)(F)F)c1`, in data set [1], the GI50 at 72 h came out at 4000 nM. For the same compound, the GI50 in data set [2] is 150 nM; in [3], 120 nM.

`CN1CCN(Cc2ccc(NC(=O)CCSc3ccc4c(-c5ccncc5)n[nH]c4c3)cc2C(F)(F)F)CC1` showed a GI50 at 72 h in [1] of 1060 nM. Further, the GI50 in [2] came out at 38 nM; in data set [3] it was 18 nM.

For the compound `O=C(CCSc1ccc2c(/C=C/c3ccccn3)n[nH]c2c1)Nc1cccc(C(F)(F)F)c1`, in data set [1], the GI50 at 72 h was 2300 nM. Further, the values for the GI50 in data set [2] and in data set [3] were 900 nM and 280 nM, respectively.

In the case of `O=C(NCCCSc1ccc2c(/C=C/c3ccccn3)n[nH]c2c1)c1cccc(C(F)(F)F)c1`, the GI50 at 72 h in data set [1] stood at 980 nM. The values for the GI50 in data set [2] and in data set [3] were 500 nM and 650 nM, respectively.

`CNC(=O)CCSc1ccc2c(/C=C/c3ccccn3)n[nH]c2c1`: the concentration for 50% growth inhibition (GI50) at 72 h in data set [1] is > 10000 nM. Besides, the GI50 in [2] and in data set [3] was > 10000 nM in each case.

On to `CCN1CCN(Cc2ccc(NC(=O)CCSc3ccc4c(/C=C/c5ccccn5)n[nH]c4c3)cc2C(F)(F)F)CC1`, for which, in data set [1], halving of growth (GI50 at 72 h) required 840 nM. The RatioGI50 in data set [4] and in [5] was 200 throughout. Moreover, the GI50 in data set [2] and in data set [3] was 4 nM throughout.

As for `CN(C)CCN(C)Cc1ccc(NC(=O)CCSc2ccc3c(/C=C/c4ccccn4)n[nH]c3c2)cc1C(F)(F)F`, in data set [1], the 50% growth inhibitory concentration (GI50) at 72 h came out at 1850 nM. For the same compound, the concentration for 50% growth inhibition (GI50) in [2] and in [3] was 110 nM throughout.

Take `COc1ccc(NC(=O)CCSc2ccc3c(/C=C/c4ccccn4)n[nH]c3c2)cc1C(F)(F)F`: the 50% growth inhibitory concentration (GI50) at 72 h in data set [1] was > 10000 nM. The figures for the GI50 in data set [2] and in [3] were 590 nM and 860 nM, respectively.

In data set [1], `O=C(CCSc1ccc2c(/C=C/c3ccccn3)n[nH]c2c1)Nc1cccc(Cl)c1` came in with a 50% growth inhibitory concentration (GI50) at 72 h of 9350 nM. For the same compound, the GI50 is 1560 nM in [2] and 2910 nM in [3].

Consider `Cc1cccc(NC(=O)CCSc2ccc3c(/C=C/c4ccccn4)n[nH]c3c2)c1`, for which the GI50 at 72 h in [1] is > 10000 nM. For the same compound, the GI50 in [2] came out at 3150 nM; in data set [3], 4030 nM.

`CN1CCN(Cc2ccc(NC(=O)CCSc3ccc4c(-c5cccnc5)n[nH]c4c3)cc2C(F)(F)F)CC1`: in data set [1], the GI50 at 72 h was found to be 2650 nM. In addition, the 50% growth inhibitory concentration (GI50) in data set [2] came to 70 nM; in data set [3], 58 nM.

In the case of `CN(C)c1cccc(NC(=O)CCSc2ccc3c(/C=C/c4ccccn4)n[nH]c3c2)c1`, in [1], the GI50 at 72 h was > 10000 nM. Moreover, the GI50 is 9670 nM in [2] and 5520 nM in data set [3].

Regarding `O=C(CCSc1ccc2c(/C=C/c3ccccn3)n[nH]c2c1)NCc1cccc(C(F)(F)F)c1`, in data set [1], the GI50 at 72 h was found to be 8030 nM. The GI50 in data set [2] turned out to be 3390 nM; in data set [3], 7050 nM.

For `Cc1ccc(NC(=O)c2ccc(CN3CCN(C)CC3)cc2)cc1Nc1nccc(-c2cccnc2)n1` [IMATINIB], the GI50 at 72 h in data set [1] and in data set [6] was > 10000 nM in each case. The GI50 is 250 nM in the data set on K562; 310 nM with KU812 cell line; 280 nM in the data set on MEG-01; > 10000 nM in the data set on MEC1; > 10000 nM in the data set with HL-60; > 10000 nM in the data set on OCI-AML2. For the same compound, the GI50 in the data set with U-937 was > 10000 nM. The Activity in the data set with BaF3 amounted to 3.36 g.

Turning to `O=C(CCSc1ccc2c(/C=C/c3ccccn3)n[nH]c2c1)Nc1ccccc1`, in data set [1], the GI50 at 72 h amounted to 690 nM. The GI50 in data set [2] was found to be 500 nM; in data set [3] it was 510 nM.

Consider `CN1CCN(Cc2ccc(NC(=O)CCSc3ccc4c(-c5ccccc5)n[nH]c4c3)cc2C(F)(F)F)CC1`, for which it took 600 nM to inhibit growth in data set [1] by half (GI50 at 72 h). For the same compound, the GI50 amounted to 32 nM in data set [2] and 110 nM in [3].

On to `COc1cccc(NC(=O)CCSc2ccc3c(/C=C/c4ccccn4)n[nH]c3c2)c1`, for which the GI50 at 72 h in data set [1] came to 3840 nM. Also, the GI50 in data set [2] stood at 3220 nM; in data set [3] it was 3210 nM.

In the case of `CN1CCN(Cc2ccc(C(=O)NCCCSc3ccc4c(/C=C/c5ccccn5)n[nH]c4c3)cc2C(F)(F)F)CC1`, growth in data set [1] was halved (GI50 at 72 h) at 4400 nM. Moreover, the GI50 in data set [2] came out at 22 nM; in [3], 330 nM.

Compound `CC1CCN(Cc2ccc(NC(=O)CCSc3ccc4c(/C=C/c5ccccn5)n[nH]c4c3)cc2C(F)(F)F)CC1` came in with a GI50 at 72 h in data set [1] of 4170 nM. For the same compound, the values for the GI50 in data set [2] and in [3] were 1980 nM and 1750 nM, respectively.

In data set [1], `O=C(NCCSc1ccc2c(/C=C/c3ccccn3)n[nH]c2c1)Nc1cccc(C(F)(F)F)c1` gave a GI50 at 72 h of 3000 nM. Moreover, the values for the GI50 in data set [2] and in data set [3] were 2740 nM and 2060 nM, respectively.

Take `Cc1ccc(NC(=O)CCSc2ccc3c(/C=C/c4ccccn4)n[nH]c3c2)cc1`: in data set [1], the 50% growth inhibitory concentration (GI50) at 72 h was > 10000 nM. Also, the concentration for 50% growth inhibition (GI50) in [2] amounted to 2870 nM; in data set [3], 4490 nM.

Turning to `Cc1n[nH]c2cc(SCCC(=O)Nc3ccc(CN4CCN(C)CC4)c(C(F)(F)F)c3)ccc12`, the GI50 at 72 h in [1] was 3900 nM. The GI50 in data set [2] turned out to be 330 nM; in data set [3], 170 nM.

Turning to `Cc1ccc(-c2n[nH]c3cc(SCCC(=O)Nc4ccc(CN5CCN(C)CC5)c(C(F)(F)F)c4)ccc23)cn1`, the GI50 at 72 h in data set [1] was found to be 1180 nM. The values for the GI50 in data set [2] and in [3] were 91 nM and 49 nM, respectively.

`O=C(CCSc1ccc2c(/C=C/c3ccccn3)n[nH]c2c1)Nc1ccc(F)c(C(F)(F)F)c1` yielded a GI50 at 72 h in data set [1] of 610 nM. In addition, the GI50 was determined as 300 nM in data set [2] and 120 nM in data set [3].

Consider `O=C(CCSc1ccc2c(/C=C/c3ccccn3)n[nH]c2c1)Nc1ccc(CN2CCOCC2)c(C(F)(F)F)c1`, for which, in data set [1], halving of growth (GI50 at 72 h) required 3970 nM. Moreover, the concentration for 50% growth inhibition (GI50) was found to be 160 nM in [2] and 210 nM in [3].

`CN1CCN(Cc2ccc(NC(=O)CCSc3ccc4c(-c5cnn(C)c5)n[nH]c4c3)cc2C(F)(F)F)CC1`: the GI50 at 72 h in data set [1] stood at 1400 nM. The results for the GI50 in data set [2] and in data set [3] were 15 nM and 20 nM, respectively.

Regarding `CNC(=O)c1ccccc1Sc1ccc2c(/C=C/c3ccccn3)n[nH]c2c1` [AXITINIB], the GI50 at 72 h is 1640 nM in data set [1] and > 10000 nM in data set [6]. Also, the GI50 in the data set on K562 stood at 940 nM; in the data set with KU812 cell line, 500 nM; in the data set on MEG-01, 970 nM; in the data set on MEC1, 1540 nM; in the data set on HL-60, 6780 nM; with OCI-AML2 it was 2360 nM. For the same compound, growth in the data set with U-937 was halved (GI50) at 1980 nM.

For the compound `CN1CCN(Cc2ccc(NC(=O)NCCSc3ccc4c(/C=C/c5ccccn5)n[nH]c4c3)cc2C(F)(F)F)CC1`, halving of growth in data set [1] (GI50 at 72 h) required 3100 nM. The GI50 amounted to 180 nM in [2] and 240 nM in [3].

For the compound `CN1CCN(Cc2ccc(C(=O)NCCSc3ccc4c(/C=C/c5ccccn5)n[nH]c4c3)cc2C(F)(F)F)CC1`, growth in data set [1] was halved (GI50 at 72 h) at 4800 nM. The GI50 in data set [2] came out at 750 nM; in data set [3], 930 nM.

Consider `Cc1ccc(NC(=O)CCSc2ccc3c(/C=C/c4ccccn4)n[nH]c3c2)cc1C(F)(F)F`, for which the 50% growth inhibitory concentration (GI50) at 72 h in [1] is 530 nM. Moreover, the results for the GI50 in data set [2] and in data set [3] were 160 nM and 88 nM, respectively.

Take `CN1CCN(c2cccc(NC(=O)CCSc3ccc4c(/C=C/c5ccccn5)n[nH]c4c3)c2)CC1`: in [1], the GI50 at 72 h is > 10000 nM. Moreover, the GI50 is 8240 nM in [2] and 8180 nM in data set [3].

Turning to `O=C(NCCSc1ccc2c(/C=C/c3ccccn3)n[nH]c2c1)c1cccc(C(F)(F)F)c1`, the GI50 at 72 h in data set [1] amounted to 1500 nM. The GI50 was determined as 2720 nM in data set [2] and 1620 nM in data set [3].

As to `O=C(CCSc1ccc2c(/C=C/c3ccccn3)n[nH]c2c1)Nc1ccc(Cl)c(C(F)(F)F)c1`, the GI50 at 72 h in [1] was > 10000 nM. Further, the values for the GI50 in [2] and in data set [3] were 2710 nM and 2670 nM, respectively.

`O=C(CCSc1ccc2c(/C=C/c3ccccn3)n[nH]c2c1)Nc1cccc(F)c1` had a GI50 at 72 h in data set [1] of 6590 nM. Moreover, the values for the GI50 in [2] and in [3] were 1510 nM and 1990 nM, respectively.

The values are drawn from ChEMBL document CHEMBL4382204 (Eur J Med Chem, 2018).
